# According to ChEMBL document CHEMBL4507276 (2021):
# Legend:
# [1] = target: Serine/threonine-protein kinase pim-1 (Homo sapiens) (UniProt P11309); assay: PIM1 Invitrogen selectivity data (BI); conditions: Compound concentration 3.0 uM
# [2] = target: Ribosomal protein S6 kinase alpha-4 (Homo sapiens) (UniProt O75676); assay: RPS6KA4 Invitrogen selectivity data (BI); conditions: Compound concentration 3.0 uM
# [3] = target: Vascular endothelial growth factor receptor 2 (Homo sapiens) (UniProt P35968); assay: KDR Invitrogen selectivity data (BI); conditions: Compound concentration 3.0 uM
# [4] = target: RAF proto-oncogene serine/threonine-protein kinase (Homo sapiens) (UniProt P04049); assay: RAF1_Y_D Invitrogen selectivity data (BI); conditions: Compound concentration 3.0 uM
# [5] = target: Alpha-1A adrenergic receptor (Rattus norvegicus) (UniProt P43140); assay: ALPHA1A/R Eurofins-Panlabs selectivity data (BI); conditions: Compound concentration 10.0 uM
# [6] = target: L-type Ca2+ channel (diltiazem site), Cav1.2 alpha-1C (Rattus norvegicus, UniProt P22002); assay: CA+/DILSI/RA Eurofins-Panlabs selectivity data (BI); conditions: compound concentration 10 uM, read-out: % Ctrl
# [7] = target: G protein-coupled receptor kinase 4 (Homo sapiens) (UniProt P32298); assay: GRK4 Invitrogen selectivity data (BI); conditions: Compound concentration 3.0 uM
# [8] = target: Thyroid hormone receptor alpha (Rattus norvegicus) (UniProt P63059); assay: THYROID HORM Eurofins-Panlabs selectivity data (BI); conditions: Compound concentration 10.0 uM
# [9] = target: Tyrosine-protein kinase FRK (Homo sapiens) (UniProt P42685); assay: FRK Invitrogen selectivity data (BI); conditions: Compound concentration 3.0 uM
# [10] = target: Angiotensin-converting enzyme (Homo sapiens) (UniProt P12821); assay: ACE(HU) Cerep selectivity data (BI); conditions: Compound concentration 20.0 uM
# [11] = target: Sodium-dependent noradrenaline transporter (Homo sapiens) (UniProt P23975); assay: NEUP/H Cerep selectivity data (BI); conditions: Compound concentration 20.0 uM
# [12] = target: Cyclin-dependent kinase 9 (Homo sapiens) (UniProt P50750); assay: CDK9CYCLIN Invitrogen selectivity data (BI); conditions: Compound concentration 3.0 uM
# [13] = target: Tyrosine-protein kinase ABL2 (Homo sapiens) (UniProt P42684); assay: ABL2 Invitrogen selectivity data (BI); conditions: Compound concentration 3.0 uM
# [14] = target: T1, Mitogen-activated protein kinase kinase kinase 7 (Homo sapiens) (UniProt O43318); assay: MAP3K7_K7IP1 Invitrogen selectivity data (BI); conditions: Compound concentration 3.0 uM
# T1 sequence (whole entry): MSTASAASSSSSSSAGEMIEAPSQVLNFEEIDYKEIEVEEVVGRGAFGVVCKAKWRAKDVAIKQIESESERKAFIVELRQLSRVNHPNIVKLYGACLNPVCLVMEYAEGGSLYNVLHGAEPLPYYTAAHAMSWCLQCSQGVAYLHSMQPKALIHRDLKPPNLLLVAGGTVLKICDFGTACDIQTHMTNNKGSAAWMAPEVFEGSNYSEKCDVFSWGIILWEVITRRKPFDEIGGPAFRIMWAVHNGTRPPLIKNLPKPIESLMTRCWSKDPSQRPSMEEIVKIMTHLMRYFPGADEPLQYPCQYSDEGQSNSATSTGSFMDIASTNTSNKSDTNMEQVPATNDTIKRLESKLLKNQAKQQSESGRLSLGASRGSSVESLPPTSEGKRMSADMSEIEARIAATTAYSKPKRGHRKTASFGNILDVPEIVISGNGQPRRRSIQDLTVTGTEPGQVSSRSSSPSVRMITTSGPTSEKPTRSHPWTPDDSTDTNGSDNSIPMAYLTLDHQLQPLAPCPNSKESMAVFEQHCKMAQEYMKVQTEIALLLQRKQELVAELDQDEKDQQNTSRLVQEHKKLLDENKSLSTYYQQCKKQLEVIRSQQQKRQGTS
# [15] = target: Protein kinase C alpha type (Mus musculus) (UniProt P20444); assay: PHORBOLE/M Eurofins-Panlabs selectivity data (BI); conditions: Compound concentration 10.0 uM
# [16] = target: T2, Serine/threonine-protein kinase DCLK2 (Homo sapiens) (UniProt Q8N568); assay: DCAMKL2 Invitrogen selectivity data (BI); conditions: Compound concentration 3.0 uM
# T2 sequence (whole entry): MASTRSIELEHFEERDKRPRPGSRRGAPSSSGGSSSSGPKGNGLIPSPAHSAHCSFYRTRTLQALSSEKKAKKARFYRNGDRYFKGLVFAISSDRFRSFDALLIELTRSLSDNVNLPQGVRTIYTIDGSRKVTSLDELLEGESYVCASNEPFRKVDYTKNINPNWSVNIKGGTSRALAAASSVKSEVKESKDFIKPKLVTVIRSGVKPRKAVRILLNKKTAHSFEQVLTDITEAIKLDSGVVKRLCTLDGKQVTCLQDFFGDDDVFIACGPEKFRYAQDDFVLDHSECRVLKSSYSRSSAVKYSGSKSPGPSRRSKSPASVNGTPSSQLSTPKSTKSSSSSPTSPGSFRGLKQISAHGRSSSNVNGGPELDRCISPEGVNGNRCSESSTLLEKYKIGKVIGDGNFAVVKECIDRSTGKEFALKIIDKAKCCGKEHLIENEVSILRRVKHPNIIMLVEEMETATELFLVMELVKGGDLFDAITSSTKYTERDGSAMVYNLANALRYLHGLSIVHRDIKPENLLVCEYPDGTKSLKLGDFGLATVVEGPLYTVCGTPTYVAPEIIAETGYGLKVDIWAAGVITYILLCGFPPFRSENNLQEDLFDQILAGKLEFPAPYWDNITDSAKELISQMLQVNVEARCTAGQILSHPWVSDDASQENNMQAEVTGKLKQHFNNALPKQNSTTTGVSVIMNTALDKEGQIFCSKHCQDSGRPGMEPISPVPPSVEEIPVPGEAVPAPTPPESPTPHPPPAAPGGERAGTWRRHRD
# [17] = target: Platelet-derived growth factor receptor beta (Homo sapiens) (UniProt P09619); assay: PDGFRB Invitrogen selectivity data (BI); conditions: Compound concentration 3.0 uM
# [18] = target: Beta-1 adrenergic receptor (Homo sapiens) (UniProt P08588); assay: BETA1/HUM Cerep selectivity data (BI); conditions: Compound concentration 20.0 uM
# [19] = target: Wee1-like protein kinase (Homo sapiens) (UniProt P30291); assay: WEE1 Invitrogen selectivity data (BI); conditions: Compound concentration 3.0 uM
# Sequence of Wee1-like protein kinase (Homo sapiens) (P30291 whole entry, looked up): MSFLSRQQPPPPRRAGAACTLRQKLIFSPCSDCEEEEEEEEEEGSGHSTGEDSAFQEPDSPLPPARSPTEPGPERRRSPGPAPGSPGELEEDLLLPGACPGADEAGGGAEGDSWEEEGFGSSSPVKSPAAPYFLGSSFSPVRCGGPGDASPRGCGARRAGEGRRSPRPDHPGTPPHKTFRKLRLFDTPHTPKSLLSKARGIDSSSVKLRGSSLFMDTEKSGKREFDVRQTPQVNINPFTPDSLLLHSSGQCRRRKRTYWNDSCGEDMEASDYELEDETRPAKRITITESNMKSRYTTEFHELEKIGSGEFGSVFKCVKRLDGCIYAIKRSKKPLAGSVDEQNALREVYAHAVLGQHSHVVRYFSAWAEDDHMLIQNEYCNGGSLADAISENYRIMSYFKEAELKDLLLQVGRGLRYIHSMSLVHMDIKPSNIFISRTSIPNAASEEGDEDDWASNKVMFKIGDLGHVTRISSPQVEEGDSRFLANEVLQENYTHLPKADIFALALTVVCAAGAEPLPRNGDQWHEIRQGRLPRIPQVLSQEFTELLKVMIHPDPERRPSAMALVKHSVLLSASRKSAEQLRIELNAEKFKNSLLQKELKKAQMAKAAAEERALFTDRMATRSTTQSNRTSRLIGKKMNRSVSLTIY
# Sequence of Serine/threonine-protein kinase pim-1 (Homo sapiens) (P11309 whole entry, looked up): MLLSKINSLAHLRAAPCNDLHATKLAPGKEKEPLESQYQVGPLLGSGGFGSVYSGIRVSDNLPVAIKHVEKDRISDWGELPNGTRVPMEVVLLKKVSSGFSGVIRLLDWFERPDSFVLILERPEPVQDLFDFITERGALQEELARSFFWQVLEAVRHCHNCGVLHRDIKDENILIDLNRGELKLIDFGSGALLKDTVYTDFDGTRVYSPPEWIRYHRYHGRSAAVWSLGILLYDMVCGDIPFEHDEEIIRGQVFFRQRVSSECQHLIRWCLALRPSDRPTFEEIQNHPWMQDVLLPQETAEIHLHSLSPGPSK
# Sequence of Beta-1 adrenergic receptor (Homo sapiens) (P08588 whole entry, looked up): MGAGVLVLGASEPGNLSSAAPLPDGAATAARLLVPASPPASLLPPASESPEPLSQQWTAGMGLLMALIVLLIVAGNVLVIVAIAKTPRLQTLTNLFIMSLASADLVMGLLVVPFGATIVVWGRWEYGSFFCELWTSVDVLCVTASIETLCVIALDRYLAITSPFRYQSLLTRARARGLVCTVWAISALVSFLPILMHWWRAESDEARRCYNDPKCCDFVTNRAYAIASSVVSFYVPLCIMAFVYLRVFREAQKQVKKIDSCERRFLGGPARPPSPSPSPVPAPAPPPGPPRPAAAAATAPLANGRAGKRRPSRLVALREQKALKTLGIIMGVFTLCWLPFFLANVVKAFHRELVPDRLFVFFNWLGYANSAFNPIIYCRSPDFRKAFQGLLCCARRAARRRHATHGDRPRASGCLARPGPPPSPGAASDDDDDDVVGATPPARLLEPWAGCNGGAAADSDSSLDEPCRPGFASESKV
# Sequence of RAF proto-oncogene serine/threonine-protein kinase (Homo sapiens) (P04049 whole entry): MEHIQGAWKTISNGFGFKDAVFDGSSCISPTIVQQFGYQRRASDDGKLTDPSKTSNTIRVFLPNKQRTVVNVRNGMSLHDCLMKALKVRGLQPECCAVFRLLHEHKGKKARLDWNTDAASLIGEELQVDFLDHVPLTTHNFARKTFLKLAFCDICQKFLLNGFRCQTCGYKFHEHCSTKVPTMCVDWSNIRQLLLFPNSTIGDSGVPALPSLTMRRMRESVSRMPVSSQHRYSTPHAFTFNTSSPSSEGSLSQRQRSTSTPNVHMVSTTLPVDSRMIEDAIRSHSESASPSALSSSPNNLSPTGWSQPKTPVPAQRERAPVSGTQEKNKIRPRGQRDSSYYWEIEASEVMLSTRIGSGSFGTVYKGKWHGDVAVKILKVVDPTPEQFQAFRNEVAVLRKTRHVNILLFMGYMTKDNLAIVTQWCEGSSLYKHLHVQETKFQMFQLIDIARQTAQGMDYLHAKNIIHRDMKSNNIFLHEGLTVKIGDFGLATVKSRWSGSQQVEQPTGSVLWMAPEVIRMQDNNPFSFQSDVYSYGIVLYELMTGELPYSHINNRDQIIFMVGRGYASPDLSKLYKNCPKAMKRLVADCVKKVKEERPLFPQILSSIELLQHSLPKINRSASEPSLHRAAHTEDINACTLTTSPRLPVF
# Sequence of G protein-coupled receptor kinase 4 (Homo sapiens) (P32298 whole entry, looked up): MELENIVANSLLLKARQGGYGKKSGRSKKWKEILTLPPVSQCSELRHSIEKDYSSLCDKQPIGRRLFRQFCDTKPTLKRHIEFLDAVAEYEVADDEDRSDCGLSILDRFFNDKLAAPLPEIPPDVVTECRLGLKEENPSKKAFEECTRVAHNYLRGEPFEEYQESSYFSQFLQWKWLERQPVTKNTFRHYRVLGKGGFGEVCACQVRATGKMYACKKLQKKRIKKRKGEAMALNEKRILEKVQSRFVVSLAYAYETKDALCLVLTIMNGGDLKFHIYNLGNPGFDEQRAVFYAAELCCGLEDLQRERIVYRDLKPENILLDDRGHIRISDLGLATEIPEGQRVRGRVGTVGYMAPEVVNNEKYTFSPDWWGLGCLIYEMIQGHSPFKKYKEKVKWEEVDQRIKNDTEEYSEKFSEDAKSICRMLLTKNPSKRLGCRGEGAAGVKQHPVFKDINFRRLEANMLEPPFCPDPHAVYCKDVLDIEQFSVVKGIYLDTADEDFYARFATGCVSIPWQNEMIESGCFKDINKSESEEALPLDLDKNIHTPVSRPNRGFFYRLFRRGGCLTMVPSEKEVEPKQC
# Sequence of L-type Ca2+ channel (diltiazem site), Cav1.2 alpha-1C (P22002 whole entry): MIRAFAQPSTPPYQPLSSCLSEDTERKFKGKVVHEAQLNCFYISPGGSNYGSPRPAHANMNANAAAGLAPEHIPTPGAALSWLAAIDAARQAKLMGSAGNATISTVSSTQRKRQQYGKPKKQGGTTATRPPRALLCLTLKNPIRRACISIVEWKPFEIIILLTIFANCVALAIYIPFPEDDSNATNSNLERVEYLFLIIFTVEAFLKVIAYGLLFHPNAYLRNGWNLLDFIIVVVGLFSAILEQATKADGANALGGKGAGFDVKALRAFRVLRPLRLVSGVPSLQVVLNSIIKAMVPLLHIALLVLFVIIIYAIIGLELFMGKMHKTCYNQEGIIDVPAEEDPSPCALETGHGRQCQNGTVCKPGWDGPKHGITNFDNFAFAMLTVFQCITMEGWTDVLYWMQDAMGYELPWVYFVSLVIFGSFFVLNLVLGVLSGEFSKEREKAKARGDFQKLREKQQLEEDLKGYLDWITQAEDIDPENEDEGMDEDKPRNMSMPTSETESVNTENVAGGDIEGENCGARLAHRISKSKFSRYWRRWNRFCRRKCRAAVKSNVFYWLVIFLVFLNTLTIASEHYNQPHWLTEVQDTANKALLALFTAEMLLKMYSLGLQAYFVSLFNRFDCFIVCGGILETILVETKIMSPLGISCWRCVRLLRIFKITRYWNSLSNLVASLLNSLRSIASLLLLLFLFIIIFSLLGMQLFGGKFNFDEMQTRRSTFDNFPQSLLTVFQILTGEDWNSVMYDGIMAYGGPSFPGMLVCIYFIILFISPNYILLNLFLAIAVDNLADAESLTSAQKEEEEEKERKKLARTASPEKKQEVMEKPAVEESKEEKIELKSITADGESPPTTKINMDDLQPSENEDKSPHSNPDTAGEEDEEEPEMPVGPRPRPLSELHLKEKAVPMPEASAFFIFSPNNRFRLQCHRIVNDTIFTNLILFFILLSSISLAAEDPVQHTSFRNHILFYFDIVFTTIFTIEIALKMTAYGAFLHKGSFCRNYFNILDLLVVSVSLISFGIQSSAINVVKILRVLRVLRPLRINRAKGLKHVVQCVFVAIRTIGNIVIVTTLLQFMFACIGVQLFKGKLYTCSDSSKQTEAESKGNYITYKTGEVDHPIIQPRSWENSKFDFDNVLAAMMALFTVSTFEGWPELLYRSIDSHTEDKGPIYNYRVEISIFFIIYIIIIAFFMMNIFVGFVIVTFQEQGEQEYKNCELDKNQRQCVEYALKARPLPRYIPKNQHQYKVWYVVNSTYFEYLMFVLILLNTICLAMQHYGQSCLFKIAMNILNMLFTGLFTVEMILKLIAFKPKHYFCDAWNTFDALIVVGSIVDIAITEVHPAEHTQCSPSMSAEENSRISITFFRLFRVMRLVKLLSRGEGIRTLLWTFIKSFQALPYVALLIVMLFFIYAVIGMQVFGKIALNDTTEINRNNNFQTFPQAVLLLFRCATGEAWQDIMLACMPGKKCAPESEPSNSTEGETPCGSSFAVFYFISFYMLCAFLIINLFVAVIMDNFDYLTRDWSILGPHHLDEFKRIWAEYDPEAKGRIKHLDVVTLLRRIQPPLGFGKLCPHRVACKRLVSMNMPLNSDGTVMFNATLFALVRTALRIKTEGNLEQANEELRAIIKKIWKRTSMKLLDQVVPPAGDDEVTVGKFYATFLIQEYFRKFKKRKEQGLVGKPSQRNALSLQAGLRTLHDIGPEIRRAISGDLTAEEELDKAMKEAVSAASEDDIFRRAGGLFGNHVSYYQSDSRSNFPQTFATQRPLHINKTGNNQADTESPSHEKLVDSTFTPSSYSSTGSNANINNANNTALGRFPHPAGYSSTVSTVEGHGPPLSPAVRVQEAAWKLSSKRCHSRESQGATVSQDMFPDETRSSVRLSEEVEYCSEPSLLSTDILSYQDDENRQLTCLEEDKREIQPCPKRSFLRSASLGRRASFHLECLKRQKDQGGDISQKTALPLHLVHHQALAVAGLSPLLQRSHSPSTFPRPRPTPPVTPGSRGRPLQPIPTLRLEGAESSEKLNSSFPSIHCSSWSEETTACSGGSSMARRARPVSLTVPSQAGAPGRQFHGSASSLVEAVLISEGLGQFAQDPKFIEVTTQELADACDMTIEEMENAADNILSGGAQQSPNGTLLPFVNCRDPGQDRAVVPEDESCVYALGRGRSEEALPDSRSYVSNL
smiles,measurement,setting,value
CN(C)C(=O)Cn1cc(-c2nc([C@@](C)(c3ccc(-c4cnc(N)nc4)cc3)C3CC3)no2)cn1 [BI 665915],residual activity,[1],97.5%
same,residual activity,[2],103%
same,residual activity,[3],90.5%
same,residual activity,[4],98%
same,residual activity,[5],100%
same,activity at 10 µM,[6],73% (not active)
same,residual activity,[7],102%
same,residual activity,[8],80%
same,residual activity,[9],94.5%
same,residual activity,[10],127%
same,residual activity,[11],94%
same,residual activity,[12],102%
same,residual activity,[13],79.5%
same,residual activity,[14],87%
same,residual activity,[15],104%
same,residual activity,[16],97%
same,residual activity,[17],94.5%
same,residual activity,[18],100%
same,residual activity,[19],100%
